Results as given in patent publication US20140163026A1, “8-ETHYL-6-(ARYL)PYRIDO[2,3-D]PYRIMIDIN-7(8H)-ONES FOR THE TREATMENT OF NERVOUS SYSTEM DISORDERS AND CANCER” (Afraxis Holdings, Inc., priority 2011, published 2014).

Key:
[1] = biological target: PAK4 (Homo sapiens, UniProt O96013); test: In vitro PAK inhibition assay (SelectScreen, Ser/Thr 20 peptide); format: biochemical
Summary of the method: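 Ten-point, 3-fold compound series (1% DMSO) incubated 1 h at room temperature with PAK4 (0.1-0.75 ng) and 2 μM Ser/Thr 20 peptide, HEPES pH 7.5 buffer with MgCl2, EGTA, BRIJ-35. Development reagent cleaves non-phosphorylated peptide; fluorescence emission ratio gives % phosphorylation, fitted sigmoidally for IC50.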

[2] = biological target: PAK3 (Homo sapiens, UniProt O75914); test: as above; format: biochemical
Chain of PAK3 (O75914 whole entry): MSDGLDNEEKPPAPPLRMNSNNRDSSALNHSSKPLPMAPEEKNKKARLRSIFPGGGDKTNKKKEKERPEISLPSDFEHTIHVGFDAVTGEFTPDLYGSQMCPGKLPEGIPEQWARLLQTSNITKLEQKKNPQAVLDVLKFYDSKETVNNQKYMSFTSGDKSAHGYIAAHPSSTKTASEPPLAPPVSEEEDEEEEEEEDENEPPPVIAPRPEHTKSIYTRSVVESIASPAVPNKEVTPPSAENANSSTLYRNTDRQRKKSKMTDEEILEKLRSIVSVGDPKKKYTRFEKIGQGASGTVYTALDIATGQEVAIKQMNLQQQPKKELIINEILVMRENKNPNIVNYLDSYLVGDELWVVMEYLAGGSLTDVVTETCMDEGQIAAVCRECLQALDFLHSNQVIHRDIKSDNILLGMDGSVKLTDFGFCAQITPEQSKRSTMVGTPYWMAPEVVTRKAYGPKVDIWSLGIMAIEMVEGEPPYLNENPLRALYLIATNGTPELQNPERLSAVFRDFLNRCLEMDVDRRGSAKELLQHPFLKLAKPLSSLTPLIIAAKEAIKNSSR
Summary of the method: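 Fluorescence-based development format: after a 60-min room-temperature kinase reaction and 60-min protease development, percent phosphorylation of Ser/Thr 20 peptide calculated via phosphopeptide controls. Buffer 50 mM HEPES pH 7.5, 10 mM MgCl2, 1 mM EGTA, 0.01% BRIJ-35; compounds at 1% DMSO, 10-point 3-fold dilution series.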

[3] = biological target: PAK1 (Homo sapiens, UniProt Q13153); test: In vitro PAK inhibition assay (SelectScreen, Ser/Thr 19 peptide); format: biochemical
Chain of PAK1 (Q13153 whole entry): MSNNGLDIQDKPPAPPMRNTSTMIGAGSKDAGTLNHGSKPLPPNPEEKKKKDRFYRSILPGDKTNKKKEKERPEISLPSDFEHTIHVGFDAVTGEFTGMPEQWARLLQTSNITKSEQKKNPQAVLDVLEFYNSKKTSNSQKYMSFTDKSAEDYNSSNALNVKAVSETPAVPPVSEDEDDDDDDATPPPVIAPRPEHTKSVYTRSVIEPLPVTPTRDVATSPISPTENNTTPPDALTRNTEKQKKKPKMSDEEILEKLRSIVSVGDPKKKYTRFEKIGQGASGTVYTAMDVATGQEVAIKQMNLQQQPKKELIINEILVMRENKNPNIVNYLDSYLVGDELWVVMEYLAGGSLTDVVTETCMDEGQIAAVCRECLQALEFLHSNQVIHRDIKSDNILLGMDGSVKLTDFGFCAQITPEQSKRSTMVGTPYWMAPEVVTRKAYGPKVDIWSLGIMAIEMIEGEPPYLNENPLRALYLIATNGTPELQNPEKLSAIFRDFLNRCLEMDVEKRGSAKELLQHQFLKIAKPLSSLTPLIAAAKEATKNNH
Summary of the method: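 Ten-point, 3-fold compound series at 1% final DMSO were incubated with enzyme, Ser/Thr 19 peptide and ATP for 60 min at room temperature. Buffer was HEPES pH 7.5 (50 mM) with 10 mM MgCl2, 1 mM EGTA, 0.01% BRIJ-35. A 60 min development step preceded the fluorescence read converted to % phosphorylation.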

[4] = biological target: PAK2 (PAK65) (Homo sapiens, UniProt Q13177); test: In vitro PAK inhibition assay (SelectScreen, Ser/Thr 20 peptide); format: biochemical
Chain of PAK2 (PAK65) (Q13177 whole entry): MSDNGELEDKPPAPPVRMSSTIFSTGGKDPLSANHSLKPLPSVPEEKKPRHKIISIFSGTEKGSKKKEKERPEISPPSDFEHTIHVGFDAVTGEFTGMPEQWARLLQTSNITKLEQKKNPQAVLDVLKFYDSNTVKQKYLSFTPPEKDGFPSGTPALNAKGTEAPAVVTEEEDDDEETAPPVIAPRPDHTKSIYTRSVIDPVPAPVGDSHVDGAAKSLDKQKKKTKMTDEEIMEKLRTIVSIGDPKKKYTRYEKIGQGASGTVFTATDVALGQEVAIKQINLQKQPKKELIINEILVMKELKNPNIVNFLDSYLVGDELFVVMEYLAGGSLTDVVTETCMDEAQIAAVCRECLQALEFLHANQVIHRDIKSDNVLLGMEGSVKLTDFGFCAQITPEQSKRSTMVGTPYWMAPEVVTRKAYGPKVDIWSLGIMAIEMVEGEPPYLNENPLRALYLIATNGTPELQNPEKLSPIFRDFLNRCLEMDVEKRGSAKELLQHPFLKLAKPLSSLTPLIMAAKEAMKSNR
Summary of the method: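 Ten-point threefold compound dilutions (1% DMSO) were incubated with PAK2 (0.29-6 ng) and Ser/Thr 20 substrate (2 μM) for 60 min at room temperature in HEPES pH 7.5 buffer with MgCl2, EGTA and BRIJ-35.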

[5] = tested on: NF2−/− Schwannoma cells; test: Growth inhibition of NF2 deficient cells (CellTiter-Glo); format: cell-based; conditions: 1 uM concentration, FIG. 6
Method: (§1) NF2 deficient cell lines were cultured in the appropriate medium. Once enough cells have propagated, plates of all adherent lines were seeded at 5,000-10,000 cells/well (depending on cell line) in a total volume of 50 μL, and plates of all suspension lines at 10,000-20,000 cells/well (depending on cell line) in a total volume of 50 μL. Plates were placed in a humidified cell culture incubator overnight to allow adherent cells to attach.
(§2) 10 mM stocks of each PAK inhibitor compound in DMSO were prepared. Dilutions were performed with media to provide 1% DMSO 2× stock solutions of each PAK inhibitor compound.
(§3) 50 μL of all PAK inhibitor compound 2× stocks were added to appropriate wells already containing 50 μL of cells and medium to expose cells to the final concentrations of compounds required. 50 μL of media was added to media and cell control wells and 50 μL of mix to vehicle control wells. At the same time as drug exposure, a CTG (CellTiter-Glo Assay) assay was performed on the 0 hr plate to obtain a 0 hr count. Cells were exposed to PAK inhibitor compounds or a DMSO control for 72 hours. Following the 72 hour exposure period, all remaining plates were assayed using CTG.
(§4) At the end of the 72 hour exposure period, plates were removed for a CTG assay from 37° C., 5% CO2 incubator and place on the bench at room temperature for 30 mins. 100 μL CTG reagent was added to each well, mixed for 2 minutes, followed by a further 10 minute incubation at room temperature. Luminescence for each well was determined.
(§5) Growth inhibition percent was calculated using the following equation: (Growth %=(Sample Value−T0Ave)/(Max−T0Ave)*100).
NF2^−/− Schwannoma cells were treated with a DMSO control or a PAK inhibitor compound (1 uM concentration) disclosed in Examples 101, 122, or 190.

[6] = tested on: NF2−/− mesothelioma cells (NCI-H226); test: as above; format: cell-based; conditions: 0 μM-30 μM, 72 hours, FIG. 7
Method: as §1, §2, §3, §4, §5
NF2^−/− mesothelioma cells (e.g., NCI-H226 cells) were treated with varying concentrations of a PAK inhibitor compound disclosed in Examples 33, 84, or 122.

[7] = tested on: SK-MES-1 cells; test: Growth inhibition of PAK1 amplified NSCLC cells (CellTiter-Glo); format: cell-based; conditions: 0 μM-30 μM, 72 hours, FIG. 10
Method: as §1, with “The PAK1 amplified” for “NF2 deficient”
as §2
as §3, with “50” for “50 μL of all PAK inhibitor compound 2× stocks were added to appropriate wells already containing 50 μL of cells and medium to expose cells to the final concentrations of compounds required. 50”
as §4, §5

[8] = tested on: NCI-H520 cells; test: as above; format: cell-based; conditions: 0 μM-30 μM, 72 hours, FIG. 9
Method: as §1, with “The PAK1 amplified” for “NF2 deficient”
as §2
as §3, with “50” for “50 μL of all PAK inhibitor compound 2× stocks were added to appropriate wells already containing 50 μL of cells and medium to expose cells to the final concentrations of compounds required. 50”
as §4, §5

[9] = tested on: EBC-1 cells; test: as above; format: cell-based; conditions: 0 μM-30 μM, 72 hours, FIG. 8
Method: as §1, with “The PAK1 amplified” for “NF2 deficient”
as §2
as §3, with “50” for “50 μL of all PAK inhibitor compound 2× stocks were added to appropriate wells already containing 50 μL of cells and medium to expose cells to the final concentrations of compounds required. 50”
as §4, §5

Chain of PAK4 (O96013 whole entry): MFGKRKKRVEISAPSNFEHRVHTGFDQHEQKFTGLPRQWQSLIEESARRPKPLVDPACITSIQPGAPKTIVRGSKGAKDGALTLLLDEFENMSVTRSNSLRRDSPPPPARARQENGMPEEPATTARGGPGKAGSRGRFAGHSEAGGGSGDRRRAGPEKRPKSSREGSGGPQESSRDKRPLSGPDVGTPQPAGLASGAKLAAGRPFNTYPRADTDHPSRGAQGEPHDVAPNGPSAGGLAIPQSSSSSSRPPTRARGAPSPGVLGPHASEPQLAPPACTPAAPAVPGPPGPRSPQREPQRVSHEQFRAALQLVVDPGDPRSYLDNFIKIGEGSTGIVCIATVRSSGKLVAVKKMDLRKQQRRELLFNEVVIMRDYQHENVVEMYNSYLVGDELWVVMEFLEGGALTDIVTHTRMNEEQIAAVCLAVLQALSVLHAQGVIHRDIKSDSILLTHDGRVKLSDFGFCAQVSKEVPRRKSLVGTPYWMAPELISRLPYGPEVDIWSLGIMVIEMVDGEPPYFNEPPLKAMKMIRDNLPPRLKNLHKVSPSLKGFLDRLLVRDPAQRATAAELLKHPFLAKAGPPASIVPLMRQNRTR

SMILES	IC50 [1] [µM]	IC50 [2] [µM]	IC50 [3] [µM]	IC50 [4] [µM]	cell number compared to DMSO control treated cells [5]	growth (%) with increasing concentration [6]	growth (%) with increasing concentration [7]	growth (%) with increasing concentration [8]	growth (%) with increasing concentration [9]
CCn1c(=O)c(-c2ccc(-c3cscn3)cc2Cl)cc2cnc(Nc3ccc(N4CCN(C)CC4)cc3)nc21	≥ 5	0.05 to 0.5	< 0.05	0.05 to 0.5					
CCn1c(=O)c(-c2ccc(C3CC3)s2)cc2cnc(Nc3ccc(N4CCN(C)CC4)cc3)nc21	≥ 5	> 5	> 5	> 5					
CCn1c(=O)c(-c2ccc(-c3csc(C)n3)s2)cc2cnc(Nc3ccc(N4CCN(C)CC4)cc3)nc21	≥ 5	> 5	> 5	> 5					
CCn1c(=O)c(-c2ccc(-c3noc(C)n3)s2)cc2cnc(Nc3ccc(N4CCN(C)CC4)cc3)nc21	≥ 5	> 5	> 5	> 5					
CCn1c(=O)c(-c2ccc(-c3ccccn3)s2)cc2cnc(Nc3ccc(N4CCN(C)CC4)cc3)nc21	≥ 5	> 5	> 5	> 5					
CCn1c(=O)c(-c2ccc(-c3cccnc3)s2)cc2cnc(Nc3ccc(N4CCN(C)CC4)cc3)nc21	≥ 5	> 5	> 5	> 5					
CCn1c(=O)c(-c2ccc(-c3nnn[nH]3)s2)cc2cnc(Nc3ccc(N4CCN(C)CC4)cc3)nc21	≥ 5	> 5	> 5	> 5					
CCn1c(=O)c(-c2ccc(-c3nnn[nH]3)cc2Cl)cc2cnc(Nc3ccc(N4CCN(C)CC4)cc3)nc21	≥ 5	> 5	> 5	> 5					
CC(=O)N(C)c1ccc(-c2ccc(Cl)c(-c3cc4cnc(Nc5ccc(C6CCN(C)CC6)cc5)nc4n(C)c3=O)c2)cn1	≥ 5	> 5	> 5	> 5					
CCn1c(=O)c(-c2ccc(-c3cnc(C)s3)cc2Cl)cc2cnc(Nc3ccc(C4CCN(C)CC4)cc3)nc21 [Example 101]					reduction in cell number				
CCn1c(=O)c(-c2ccc(-c3noc(C)n3)cc2Cl)cc2cnc(Nc3ccc(C4CCN(C)CC4)cc3)nc21 [Example 122]					reduction in cell number	the growth (%) of the cells reduced	the growth (%) decreased	the growth (%) decreased	the growth (%) decreased
CCn1c(=O)c(-c2ccc(-c3cncc(C)n3)cc2Cl)cc2cnc(Nc3ccc(C4CCN(C)CC4)cc3)nc21 [Example 190]					reduction in cell number				
CCn1c(=O)c(-c2ccc(-c3cccnc3)cc2Cl)cc2cnc(Nc3ccc(N4CCN(C(C)C)CC4)cc3)nc21 [drawing 650]	≥ 5	< 0.05	< 0.05	< 0.05					

More lines, main results first:

IC50 [1] [µM]	IC50 [2] [µM]	IC50 [3] [µM]	IC50 [4] [µM]	SMILES	cell number compared to DMSO control treated cells [5]	growth (%) with increasing concentration [6]	growth (%) with increasing concentration [7]	growth (%) with increasing concentration [8]	growth (%) with increasing concentration [9]
≥ 5	0.5 to 5	0.05 to 0.5	0.5 to 5	CCn1c(=O)c(-c2ccc(C3CC3)cc2)cc2cnc(Nc3ccc(N4CCN(C)CC4)cc3)nc21					
≥ 5	> 5	0.05 to 0.5	0.5 to 5	CCn1c(=O)c(-c2ccc(-c3cccs3)cc2)cc2cnc(Nc3ccc(N4CCN(C)CC4)cc3)nc21					
≥ 5	0.05 to 0.5	0.05 to 0.5	0.05 to 0.5	CCn1c(=O)c(-c2ccc(-c3ccc(OC)nc3)cc2)cc2cnc(Nc3ccc(N4CCN(C)CC4)cc3)nc21					
≥ 5	> 5	0.5 to 5	> 5	CCn1c(=O)c(-c2nc(C3CCNCC3)sc2C)cc2cnc(Nc3ccc(N4CCN(C)CC4)cc3)nc21					
0.5 to 5	< 0.05	< 0.05	< 0.05	CCn1c(=O)c(-c2ccc(-c3cncnc3)cc2Cl)cc2cnc(Nc3ccc(C4CNCCO4)cc3)nc21 (stereo not drawn)					
≥ 5	> 5	> 5	> 5	CCn1c(=O)c(-c2nc(C3CCN(C)CC3)sc2C)cc2cnc(Nc3ccc(N4CCN(C)CC4)cc3)nc21					
≥ 5	0.5 to 5	> 5	0.5 to 5	CCn1c(=O)c(-c2ccc(-c3ccc(NC(C)=O)nc3)cc2Cl)cc2cnc(Nc3ccc(N4CCN(C)CC4)cc3)nc21					
≥ 5	0.5 to 5	0.05 to 0.5	0.05 to 0.5	CCn1c(=O)c(-c2ccc(-c3cncnc3)cc2)cc2cnc(Nc3ccc(N4CCN(C)CC4)cc3)nc21					
≥ 5	> 5	> 5	> 5	CCn1c(=O)c(-c2ccc(-c3cccc4ncccc34)cc2)cc2cnc(Nc3ccc(N4CCN(C)CC4)cc3)nc21					
≥ 5	> 5	> 5	> 5	CCn1c(=O)c(-c2ccc(-c3cccs3)s2)cc2cnc(Nc3ccc(N4CCN(C)CC4)cc3)nc21					
≥ 5	> 5	> 5	> 5	CCn1c(=O)c(-c2nc(C3CCN(C(C)=O)CC3)sc2C)cc2cnc(Nc3ccc(N4CCN(C)CC4)cc3)nc21					
≥ 5	< 0.05	< 0.05	< 0.05	CCn1c(=O)c(-c2ccc(-c3cncnc3)cc2Cl)cc2cnc(Nc3ccc(C4CN(C)CCO4)cc3)nc21 (stereo not drawn)					
0.5 to 5	0.05 to 0.5	< 0.05	< 0.05	CCn1c(=O)c(-c2ccc(-c3ncc(C)s3)cc2Cl)cc2cnc(Nc3ccc(N4CCN(C)CC4)cc3)nc21					
≥ 5	> 5	0.05 to 0.5	0.5 to 5	CCn1c(=O)c(-c2ccc(-c3cncs3)cc2)cc2cnc(Nc3ccc(N4CCN(C)CC4)cc3)nc21					
0.05 to 0.5	< 0.05	< 0.05	< 0.05	CCn1c(=O)c(-c2ccc(-c3ccc(OC)nc3)cc2Cl)cc2cnc(Nc3ccc(N4CCN(C)CC4)cc3)nc21					
0.05 to 0.5	< 0.05	< 0.05	< 0.05	CCn1c(=O)c(-c2ccc(-c3cccnc3)cc2Cl)cc2cnc(Nc3ccc(N4CCN(C(C)C)CC4)cc3)nc21 [drawing 655]					
